Key:
[1] = test system: CDK9; assay: IHC protein expression on OVCAR3 tumor samples: CDK9; type: in vivo, human; conditions: OVCAR3 tumor samples from Example 1 CDX study
Experimental: (§1) • Sample Collection: 16 tumor samples were collected across the vehicle, olaparib, E7820 single agent, and paclitaxel arms from the in vivo OVCAR3 CDX study described in Example 1
(§2) • 1) Collect fresh specimens and place in 10% NBF (neutral-buffered formalin; fixative volume/tissue, 10˜20 folds), fix at room temperature for 24 hours. • 2) Trim the fixed tissue at the thickness of 3-5 mm. • 3) Move the tissue into the Embedding box, and snap the box into deionized water for 30 minutes, change water twice every 30 minutes. • 4) After washing, the fixed tissues are transferred to the LEICA ASP300S Vacuum Tissue Processor for dehydration.
(§3) • All stained sections are scanned with NanoZoomer-HT 2.0 Image system for 40× magnification. High resolution picture for whole section is generated and further quantification analyzed by HALO. All the scanned images are analyzed by HALO™ platform. The whole slide image is analyzed and necrosis and stroma area are excluded, only viable tumor area is scored. The intensity of specific staining is scored at four levels, 0 (negative), 1+(weak staining), 2+(medium staining), 3+(strong staining). The percentages of tumor cells at different intensity levels are evaluated with H-score. H-Score=(% at 0)×0+(% at 1)×1+(% at 2)×2+(% at 3)×3 (H-Score range is 0 to 300).

[2] = test system: pHH3; assay: IHC protein expression on OVCAR3 tumor samples: pHH3; type: in vivo, human; conditions: OVCAR3 tumor samples from Example 1 CDX study
Experimental: as §1, §2, §3

With Cc1ccc(NS(=O)(=O)c2cccc(C#N)c2)c2[nH]cc(C#N)c12 [Compound E7820] the “CDK9 protein expression (IHC)” value [1] was “no changes” and the “pHH3 protein expression (IHC)” value [2] was “upregulate”.

Reference: patent US20260183262A1, “RNA-BINDING MOTIF PROTEIN 39 (RBM39) DEGRADERS FOR TREATMENT OF CANCERS” (RECURSION PHARMACEUTICALS, INC., priority 2022, published 2026)
